# From the OligoGym collection
# Bases are written 5' to 3'; sugars and linkages follow in the same order, as letters with counts (s phosphorothioate, o phosphodiester; PS: all linkages phosphorothioate). The collection does not say whether C is 5-methylated. l = locked nucleic acid (LNA); d = 2'-deoxy (DNA)
# Target: Tau
# Assay: rat primary cortical neurons, FLIPR, 25 uM ASO
row,Sequence,calcium oscillation score
1,"TAGACCACATTTCCATC (sugars l3 d11 l3, PS)",79.1 % of control
2,"TAGACTATTTGCACACTGCC (sugars l3 d14 l3, PS)",51.9 % of control
3,"TAGACTCCTTCTTTAGGCTT (sugars l3 d14 l3, PS)",45.2 % of control
4,"TAGCAAACAGGATACA (sugars l3 d10 l3, PS)",49.8 % of control
5,"TAGCAGAGGAACGTGT (sugars l3 d10 l3, PS)",40.7 % of control
6,"TAGCCCACCCATCAATTTGG (sugars l3 d14 l3, PS)",7.77 % of control
7,"TAGCCCTAAAGTCC (sugars l3 d8 l3, PS)",87.6 % of control
8,"TAGCCCTAAAGTCCCAGGTC (sugars l3 d14 l3, PS)",54 % of control
9,"TAGGAGAGGAAGGTGG (sugars l3 d10 l3, PS)",3.7 % of control
10,"TAGTAAACACCATCTC (sugars l4 d9 l3, PS)",77.2 % of control
11,"TAGTAAACACCATCTCT (sugars l3 d10 l4, PS)",71.4 % of control
12,"TAGTCACTCTGGTG (sugars l3 d8 l3, PS)",81.9 % of control
13,"TAGTCACTCTGGTGA (sugars l3 d9 l3, PS)",78.1 % of control
14,"TAGTTATACAGTTGGCCCTA (sugars l3 d14 l3, PS)",19.1 % of control
15,"TATACAGTTGGCCCTACCAT (sugars l3 d14 l3, PS)",16.7 % of control
16,"TATCATATCCTAAGCA (sugars l3 d9 l4, PS)",76 % of control
17,"TATCATTTTCTTTTTCAAAA (sugars l4 d12 l4, PS)",37.3 % of control
18,"TATCCAGCCATATTTCAACT (sugars l3 d14 l3, PS)",47.6 % of control
19,"TATCCTTTGAGCCACACTTG (sugars l3 d14 l3, PS)",11.7 % of control
20,"TATCTGCAAACTCAAC (sugars l4 d8 l4, PS)",98.9 % of control
21,"TATCTTATTGCTTTCCA (sugars l2 d12 l3, PS)",63 % of control
22,"TATGTTTTTTAACTCCC (sugars l4 d11 l2, PS)",94.3 % of control

row,Sequence,calcium oscillation score
1,"TATTAATTATCTGCAC (sugars l3 d10 l3, PS)",27.1 % of control
2,"TATTAATTATCTGCACC (sugars l3 d10 l4, PS)",50.9 % of control
3,"TATTAATTCATAAATGACTA (sugars l3 d14 l3, PS)",40.3 % of control
4,"TATTATCCTTTGAGCCACAC (sugars l3 d14 l3, PS)",77.4 % of control
5,"TATTGAACTCACCCACT (sugars l2 d11 l4, PS)",65.7 % of control
6,"TATTGAACTCACCCACTC (sugars l2 d13 l3, PS)",69 % of control
7,"TATTGCTTTCCAATTCCC (sugars l4 d12 l2, PS)",93.2 % of control
8,"TATTGTCCAGGGACCC (sugars l3 d10 l3, PS)",29.9 % of control
9,"TATTGTCCAGGGACCCAATC (sugars l3 d14 l3, PS)",33.2 % of control
10,"TATTTACACTGTCCTTT (sugars l4 d9 l4, PS)",52.1 % of control
11,"TATTTATAGGTGCATA (sugars l3 d9 l4, PS)",0 % of control
12,"TATTTATTCTTTTTATTATT (sugars l4 d12 l4, PS)",58.6 % of control
13,"TATTTCAACTCTTAGCA (sugars l4 d10 l3, PS)",59 % of control
14,"TATTTCCAAATTCACTTTTA (sugars l1 d17 l2, PS)",≥ 200 % of control
15,"TATTTCCAAATTCACTTTTA (sugars l2 d16 l2, PS)",≥ 200 % of control
16,"TATTTCCAAATTCACTTTTA (sugars l3 d14 l3, PS)",≥ 200 % of control
17,"TATTTCCAAATTCACTTTTA (sugars l4 d10 l1 d2 l3, PS)",127 % of control
18,"TATTTCCAAATTCACTTTTA (sugars l4 d11 l5, PS)",172 % of control
19,"TATTTCCAAATTCACTTTTA (sugars l5 d10 l5, PS)",≥ 200 % of control
20,"TATTTCCAAATTCACTTTTA (sugars l5 d11 l4, PS)",121 % of control
21,"TATTTCCAAATTCACTTTTA (sugars ldlllddddddddddlldll, PS)",145 % of control
